Compound: CN1CCN(CC1)C2=CC(=C(C=C2)NC3=NC=C4C(=N3)N(C5=CC=CC=C5C(=O)N4C)C)OC [XMD8-85] + CS(=O)(=O)N1CCN(Cc2cc3nc(-c4cccc5[nH]ncc45)nc(N4CCOCC4)c3s2)CC1 [Pictilisib] (partner 1 µM)
Test: relative viability (nuclei count vs DMSO), 5 days (fraction); higher = more cells survive
Settings: first compound 0.08 µM
In short: (§1)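 Relative viability equals treated-well nuclei counts divided by vehicle-well nuclei counts. Counts came from 4× images of lung cancer cell lines grown in 1536-well plates for 5 days after pin-tool dosing on the day after seeding. Dosing used one drug alone or a fixed anchor-drug dose plus five library-drug doses (not always all listed) in √10 steps, and values are medians of duplicate plates.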

Cell Line | relative viability
LXF-289 | 0.682
NCI-H23 | 0.486
NCI-H322M | 0.551
NCI-H358 | 0.353
NCI-H460 | 0.341
NCI-H520 | 0.222
NCI-H596 | 0.392
NCI-H647 | 0.473
NCI-H661 | 0.406
NCI-H727 | 0.373
NCI-H838 | 0.423
NCI-H1299 | 0.651
NCI-H1355 | 0.458
NCI-H1395 | 0.699
NCI-H1437 | 0.4
NCI-H1563 | 0.703

Cell Line | relative viability
NCI-H1650 | 0.508
NCI-H1651 | 0.527
NCI-H1666 | 0.522
NCI-H1703 | 0.236
NCI-H1734 | 0.45
NCI-H1755 | 0.369
NCI-H1793 | 0.389
NCI-H1915 | 0.985
NCI-H1944 | 0.326
NCI-H1975 | 0.322
NCI-H1993 | 0.859
NCI-H2009 | 0.753
NCI-H2023 | 0.199
NCI-H2085 | 0.378
NCI-H2087 | 0.924

Same assay, conditions: first compound 0.253 µM

Cell Line | relative viability
NCI-H23 | 0.508
NCI-H322M | 0.501
NCI-H358 | 0.366
NCI-H460 | 0.356
NCI-H520 | 0.271
NCI-H596 | 0.396
NCI-H647 | 0.45
NCI-H650 | 0.892
NCI-H661 | 0.419
NCI-H727 | 0.387
NCI-H838 | 0.455
NCI-H1299 | 0.908
NCI-H1355 | 0.41
NCI-H1395 | 0.649
NCI-H1437 | 0.376
NCI-H1563 | 0.652

Cell Line | relative viability
NCI-H1650 | 0.501
NCI-H1651 | 0.454
NCI-H1666 | 0.375
NCI-H1703 | 0.234
NCI-H1734 | 0.397
NCI-H1755 | 0.426
NCI-H1793 | 0.248
NCI-H1915 | 0.944
NCI-H1944 | 0.332
NCI-H1975 | 0.257
NCI-H1993 | 0.795
NCI-H2009 | 0.722
NCI-H2023 | 0.274
NCI-H2085 | 0.427
NCI-H2087 | 0.723

Same assay, conditions: first compound 0.8 µM

Cell Line | relative viability
LXF-289 | 0.82
NCI-H23 | 0.524
NCI-H322M | 0.502
NCI-H358 | 0.359
NCI-H460 | 0.405
NCI-H520 | 0.295
NCI-H596 | 0.359
NCI-H647 | 0.367
NCI-H650 | 0.846
NCI-H661 | 0.412
NCI-H727 | 0.342
NCI-H838 | 0.503
NCI-H1299 | 0.874
NCI-H1355 | 0.485
NCI-H1395 | 0.634
NCI-H1437 | 0.433

Cell Line | relative viability
NCI-H1563 | 0.646
NCI-H1650 | 0.64
NCI-H1651 | 0.584
NCI-H1666 | 0.391
NCI-H1703 | 0.269
NCI-H1734 | 0.477
NCI-H1755 | 0.448
NCI-H1793 | 0.44
NCI-H1915 | 0.936
NCI-H1944 | 0.351
NCI-H1975 | 0.267
NCI-H1993 | 0.822
NCI-H2009 | 0.892
NCI-H2023 | 0.259
NCI-H2085 | 0.467
NCI-H2087 | 0.961

Same assay, conditions: first compound 2.53 µM

Cell Line | relative viability
LXF-289 | 0.874
NCI-H23 | 0.523
NCI-H322M | 0.527
NCI-H358 | 0.362
NCI-H460 | 0.333
NCI-H520 | 0.248
NCI-H596 | 0.397
NCI-H647 | 0.434
NCI-H650 | 0.8
NCI-H661 | 0.366
NCI-H727 | 0.433
NCI-H838 | 0.429
NCI-H1299 | 0.643
NCI-H1355 | 0.449
NCI-H1395 | 0.613
NCI-H1437 | 0.333

Cell Line | relative viability
NCI-H1563 | 0.663
NCI-H1650 | 0.539
NCI-H1651 | 0.534
NCI-H1666 | 0.312
NCI-H1703 | 0.229
NCI-H1734 | 0.502
NCI-H1755 | 0.552
NCI-H1793 | 0.405
NCI-H1915 | 1.02
NCI-H1944 | 0.333
NCI-H1975 | 0.29
NCI-H1993 | 0.701
NCI-H2009 | 0.653
NCI-H2023 | 0.265
NCI-H2085 | 0.436
NCI-H2087 | 0.83

Same assay, conditions: first compound 8 µM

Cell Line | relative viability
LXF-289 | 0.781
NCI-H23 | 0.426
NCI-H322M | 0.409
NCI-H358 | 0.304
NCI-H460 | 0.156
NCI-H520 | 0.231
NCI-H596 | 0.354
NCI-H647 | 0.155
NCI-H650 | 0.524
NCI-H661 | 0.357
NCI-H727 | 0.327
NCI-H838 | 0.317
NCI-H1299 | 0.367
NCI-H1355 | 0.33
NCI-H1395 | 0.484
NCI-H1437 | 0.318

Cell Line | relative viability
NCI-H1563 | 0.62
NCI-H1650 | 0.226
NCI-H1651 | 0.44
NCI-H1666 | 0.44
NCI-H1703 | 0.196
NCI-H1734 | 0.475
NCI-H1755 | 0.357
NCI-H1793 | 0.38
NCI-H1915 | 0.676
NCI-H1944 | 0.307
NCI-H1975 | 0.242
NCI-H1993 | 0.814
NCI-H2009 | 0.364
NCI-H2023 | 0.178
NCI-H2085 | 0.445
NCI-H2087 | 0.542

Compound: O=C(O)C(Cc1ccccc1[N+](=O)[O-])=NNc1nc(-c2ccc(Cl)c(Cl)c2)cs1 (mixture of isomers) [4EGI-1] + CS(=O)(=O)CCNCc1ccc(-c2ccc3ncnc(Nc4ccc(OCc5cccc(F)c5)c(Cl)c4)c3c2)o1 [Lapatinib] (partner 2 µM)
Test: as above
Settings: first compound 0.5 µM
In short: as §1

Cell Line | relative viability
LXF-289 | 0.893
NCI-H23 | 1.24
NCI-H322M | 0.617
NCI-H358 | 0.483
NCI-H460 | 1.09
NCI-H520 | 0.98
NCI-H596 | 1.07
NCI-H647 | 1.03
NCI-H650 | 1.28
NCI-H661 | 0.666
NCI-H727 | 0.96
NCI-H838 | 1.24
NCI-H1299 | 0.932
NCI-H1355 | 1.11
NCI-H1395 | 0.975
NCI-H1437 | 0.914

Cell Line | relative viability
NCI-H1563 | 1.11
NCI-H1650 | 0.953
NCI-H1651 | 0.993
NCI-H1666 | 0.743
NCI-H1703 | 1.46
NCI-H1734 | 1.15
NCI-H1755 | 1.06
NCI-H1793 | 0.637
NCI-H1915 | 0.99
NCI-H1944 | 0.816
NCI-H1975 | 1.05
NCI-H1993 | 0.945
NCI-H2009 | 1.06
NCI-H2023 | 1.37
NCI-H2085 | 0.857
NCI-H2087 | 1.11

Same assay, conditions: first compound 1.581 µM

Cell Line | relative viability
LXF-289 | 0.912
NCI-H322M | 0.558
NCI-H358 | 0.437
NCI-H520 | 0.882
NCI-H596 | 1.03
NCI-H647 | 0.989
NCI-H661 | 0.46
NCI-H727 | 0.712
NCI-H1299 | 0.957
NCI-H1355 | 0.931
NCI-H1437 | 0.861
NCI-H1563 | 0.809
NCI-H1651 | 0.85
NCI-H1666 | 0.616
NCI-H1703 | 0.955
NCI-H1734 | 0.939
NCI-H1755 | 1.01
NCI-H1793 | 0.886
NCI-H1915 | 0.747
NCI-H1975 | 0.916
NCI-H1993 | 0.718
NCI-H2009 | 0.879
NCI-H2085 | 0.769
NCI-H2087 | 0.934

Same assay, conditions: first compound 5 µM

Cell Line | relative viability
LXF-289 | 0.893
NCI-H23 | 1.09
NCI-H322M | 0.637
NCI-H358 | 0.603
NCI-H460 | 0.975
NCI-H520 | 0.963
NCI-H596 | 1.23
NCI-H647 | 1.08
NCI-H650 | 1.12
NCI-H661 | 0.566
NCI-H727 | 0.96
NCI-H838 | 1.16
NCI-H1299 | 1.02
NCI-H1355 | 1.03
NCI-H1395 | 1.18
NCI-H1437 | 0.671

Cell Line | relative viability
NCI-H1563 | 0.994
NCI-H1650 | 0.825
NCI-H1651 | 0.813
NCI-H1666 | 0.653
NCI-H1703 | 1.17
NCI-H1734 | 1.15
NCI-H1755 | 0.967
NCI-H1793 | 0.556
NCI-H1915 | 0.954
NCI-H1944 | 0.776
NCI-H1975 | 0.916
NCI-H1993 | 0.838
NCI-H2009 | 0.962
NCI-H2023 | 0.964
NCI-H2085 | 0.807
NCI-H2087 | 1.07

Same assay, conditions: first compound 15.81 µM

Cell Line | relative viability
LXF-289 | 0.763
NCI-H23 | 1.13
NCI-H322M | 0.566
NCI-H358 | 0.395
NCI-H460 | 0.131
NCI-H520 | 0.738
NCI-H596 | 0.958
NCI-H647 | 0.505
NCI-H650 | 0.918
NCI-H661 | 0.43
NCI-H727 | 0.724
NCI-H838 | 0.654
NCI-H1299 | 0.987
NCI-H1355 | 0.989
NCI-H1395 | 0.832
NCI-H1437 | 0.184

Cell Line | relative viability
NCI-H1563 | 0.393
NCI-H1650 | 0.374
NCI-H1651 | 0.665
NCI-H1666 | 0.526
NCI-H1703 | 1.22
NCI-H1734 | 0.903
NCI-H1755 | 0.883
NCI-H1793 | 0.814
NCI-H1915 | 1.03
NCI-H1944 | 0.745
NCI-H1975 | 0.93
NCI-H1993 | 0.693
NCI-H2009 | 0.744
NCI-H2023 | 0.217
NCI-H2085 | 0.586
NCI-H2087 | 0.911

Same assay, conditions: first compound 50 µM

Cell Line | relative viability
LXF-289 | 0.677
NCI-H23 | 0.43
NCI-H322M | 0.427
NCI-H358 | 0.211
NCI-H460 | 0.0327
NCI-H520 | 0.144
NCI-H596 | 0.609
NCI-H647 | 0.124
NCI-H650 | 0.652
NCI-H661 | 0.342
NCI-H727 | 0.391
NCI-H838 | 0.173
NCI-H1299 | 0.357
NCI-H1355 | 0.586
NCI-H1395 | 0.413
NCI-H1437 | 0.127

Cell Line | relative viability
NCI-H1563 | 0.536
NCI-H1650 | 0.256
NCI-H1651 | 0.185
NCI-H1666 | 0.229
NCI-H1703 | 0.437
NCI-H1734 | 0.393
NCI-H1755 | 0.284
NCI-H1793 | 0.402
NCI-H1915 | 0.679
NCI-H1944 | 0.456
NCI-H1975 | 0.287
NCI-H1993 | 0.767
NCI-H2009 | 0.177
NCI-H2023 | 0.0883
NCI-H2085 | 0.357
NCI-H2087 | 0.222
